In US9062351B2, “Diagnostic, prognostic and therapeutic uses of long non-coding RNAs for cancer and regenerative medicine” (The Board of Trustees of the Leland Stanford Junior …, priority 2011, dated 2015):

Key:
EZH2 = target: T1, EZH2 (Homo sapiens, UniProt Q15910); experiment: RNAse mediated RNA chromatography; type: binding; details: lysates of doxorubicin-treated human fibroblasts
T1 construct: RNA chromatography of PANDA from doxorubicin-treated FL3 cell lysates; endogenous in cells; host or cells: doxorubicin-treated human fetal lung fibroblasts (FL3)
T1 sequence (Q15910 whole entry): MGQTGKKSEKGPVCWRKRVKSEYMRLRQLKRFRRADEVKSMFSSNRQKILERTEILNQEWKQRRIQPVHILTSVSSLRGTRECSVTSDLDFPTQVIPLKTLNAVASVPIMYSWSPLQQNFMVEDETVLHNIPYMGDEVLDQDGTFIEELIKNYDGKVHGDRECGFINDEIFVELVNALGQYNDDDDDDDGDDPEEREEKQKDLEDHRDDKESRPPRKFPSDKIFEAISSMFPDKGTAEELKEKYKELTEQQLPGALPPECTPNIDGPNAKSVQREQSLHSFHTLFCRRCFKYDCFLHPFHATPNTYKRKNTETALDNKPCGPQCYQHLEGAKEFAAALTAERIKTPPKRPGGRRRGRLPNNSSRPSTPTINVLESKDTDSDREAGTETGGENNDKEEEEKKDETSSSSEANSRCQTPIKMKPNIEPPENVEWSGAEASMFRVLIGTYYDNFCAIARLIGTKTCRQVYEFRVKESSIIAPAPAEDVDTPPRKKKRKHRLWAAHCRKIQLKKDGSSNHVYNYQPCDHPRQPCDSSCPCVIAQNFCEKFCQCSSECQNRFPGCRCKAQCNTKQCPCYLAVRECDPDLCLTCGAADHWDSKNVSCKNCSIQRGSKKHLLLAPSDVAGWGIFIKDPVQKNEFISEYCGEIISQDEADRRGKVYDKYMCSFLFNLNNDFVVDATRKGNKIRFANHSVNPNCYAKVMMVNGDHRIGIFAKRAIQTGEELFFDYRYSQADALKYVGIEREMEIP
T1 sequence (O75530 whole entry partner): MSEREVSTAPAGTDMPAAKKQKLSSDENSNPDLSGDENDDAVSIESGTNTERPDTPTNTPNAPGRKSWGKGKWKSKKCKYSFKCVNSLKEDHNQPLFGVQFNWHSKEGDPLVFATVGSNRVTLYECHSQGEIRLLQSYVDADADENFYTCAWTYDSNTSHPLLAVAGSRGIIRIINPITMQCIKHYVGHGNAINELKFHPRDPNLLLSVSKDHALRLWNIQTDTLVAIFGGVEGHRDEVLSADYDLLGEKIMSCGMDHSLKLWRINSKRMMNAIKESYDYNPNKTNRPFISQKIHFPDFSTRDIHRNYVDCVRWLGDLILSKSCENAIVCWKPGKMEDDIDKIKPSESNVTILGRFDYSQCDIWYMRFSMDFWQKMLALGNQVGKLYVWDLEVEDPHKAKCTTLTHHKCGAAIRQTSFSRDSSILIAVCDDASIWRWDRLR
T1 sequence (Q15022 whole entry partner): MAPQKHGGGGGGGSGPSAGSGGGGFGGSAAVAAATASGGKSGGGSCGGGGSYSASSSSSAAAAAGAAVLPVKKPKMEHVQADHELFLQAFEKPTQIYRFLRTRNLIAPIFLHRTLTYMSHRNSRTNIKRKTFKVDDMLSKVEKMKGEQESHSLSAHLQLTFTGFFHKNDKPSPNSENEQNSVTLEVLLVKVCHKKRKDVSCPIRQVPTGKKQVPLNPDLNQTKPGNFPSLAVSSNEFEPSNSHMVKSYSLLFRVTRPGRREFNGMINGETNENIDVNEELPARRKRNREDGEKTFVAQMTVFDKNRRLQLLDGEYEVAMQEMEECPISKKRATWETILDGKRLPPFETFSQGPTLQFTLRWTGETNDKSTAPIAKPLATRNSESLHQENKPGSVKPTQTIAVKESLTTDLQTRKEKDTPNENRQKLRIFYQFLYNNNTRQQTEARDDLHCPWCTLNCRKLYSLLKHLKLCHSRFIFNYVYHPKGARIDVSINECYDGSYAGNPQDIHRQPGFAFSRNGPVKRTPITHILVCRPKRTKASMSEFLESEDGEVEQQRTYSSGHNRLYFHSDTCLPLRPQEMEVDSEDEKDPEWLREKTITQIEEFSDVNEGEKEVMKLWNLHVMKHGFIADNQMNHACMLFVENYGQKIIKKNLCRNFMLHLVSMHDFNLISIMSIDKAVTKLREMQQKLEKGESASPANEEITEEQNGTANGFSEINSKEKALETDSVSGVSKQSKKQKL
Procedure: (§1) RNAse mediated RNA chromatography (Michlewski et al. (2010) RNA 16:1673-1678, herein incorporated by reference in its entirety) was performed as previously described with the following modifications: 6 pmols of RNA (PANDA or a 1.2-kb fragment of LacZ) were used per reaction. RNA was folded (90° C. for 2 minutes, ice for 2 minutes), supplied with RNA structure buffer (Ambion) and shifted to room temperature (22-25° C.) for 20 minutes before conjugation to beads. RNAse digestion was performed with 5 μl of RNase A/T1 cocktail (Ambion) and 2 μl of RNase V1 (Ambion). Cellular lysates were prepared as follows: 10 million doxorubicin treated cells (16 hours) were incubated in 200 μl PBS, 600 μl H20 and 200 μl nuclear lysis buffer (1.28 M sucrose; 40 mM Tris-HCl pH 7.5; 20 mM MgCl2; 4% Triton X-100) on ice for 20 minutes. Nuclei were pelleted by centrifugation at 2,500 g for 15 minutes. The nuclear pellet was resuspended in 1 ml RIP buffer (150 mM KCl, 25 mM Tris pH 7.4, 0.5 mM DTT, 0.5% NP40, 1 mM PMSF and protease inhibitor (Roche Complete Protease Inhibitor Cocktail Tablets)). Resuspended nuclei were sheared using a motorized douncer for 5 seconds. Nuclear membrane and debris were pelleted by centrifugation at 18,000 g for 10 minutes.
(§2) Core promoters of cell death genes downstream of p53 are distinguished from other p53 target genes by the binding site for the transcription factor NF-YA (Morachis et al. (2010) Genes Dev. 24:135-147), and we reasoned that PANDA may affect NF-YA function. […] NF-YA is a nuclear transcription factor that activates the p53-responsive promoter of FAS upon DNA damage (Morachis et al. (2010) Genes Dev. 24:135-147). […] Thus, PANDA binding to NF-YA may evict or prevent NF-YA binding to chromatin. […] CDKN1A mRNA produces p21 to mediate arrest, whereas PANDA impedes NF-YA activation of apoptotic gene expression program (FIG. 8).

NF-YA [1] = target: T2, NF-YA (Homo sapiens, UniProt P23511); experiment: RNAse mediated RNA chromatography; type: binding; details: in vitro transcribed RNA; lysates of doxorubicin-treated human fibroblasts
T2 construct: RNA chromatography of PANDA from doxorubicin-treated FL3 cell lysates; endogenous in cells; host or cells: doxorubicin-treated human fetal lung fibroblasts (FL3)
T2 sequence (P23511 whole entry): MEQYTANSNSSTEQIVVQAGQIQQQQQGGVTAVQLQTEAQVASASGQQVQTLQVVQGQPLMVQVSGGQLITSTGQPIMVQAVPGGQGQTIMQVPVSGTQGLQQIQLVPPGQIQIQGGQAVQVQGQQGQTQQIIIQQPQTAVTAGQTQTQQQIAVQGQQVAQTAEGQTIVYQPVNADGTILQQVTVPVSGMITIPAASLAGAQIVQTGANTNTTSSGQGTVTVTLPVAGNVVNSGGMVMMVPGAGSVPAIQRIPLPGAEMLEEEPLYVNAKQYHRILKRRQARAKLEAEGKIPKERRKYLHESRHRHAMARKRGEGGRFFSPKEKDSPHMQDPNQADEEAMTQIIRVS
Procedure: as §1, §2

p21 = target: T3, p21 (Homo sapiens, UniProt P38936); experiment: RNAse mediated RNA chromatography; type: binding; details: lysates of doxorubicin-treated human fibroblasts
T3 construct: RNA chromatography of PANDA from doxorubicin-treated FL3 cell lysates; endogenous in cells; host or cells: doxorubicin-treated human fetal lung fibroblasts (FL3)
T3 sequence (P38936 whole entry): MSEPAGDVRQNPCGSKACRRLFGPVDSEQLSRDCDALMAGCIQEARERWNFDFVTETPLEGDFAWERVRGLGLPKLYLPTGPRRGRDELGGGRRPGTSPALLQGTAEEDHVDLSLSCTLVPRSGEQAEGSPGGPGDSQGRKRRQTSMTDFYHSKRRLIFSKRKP
Procedure: as §1, §2

LSD1 = target: T4, LSD1 (Homo sapiens, UniProt O60341); experiment: RNAse mediated RNA chromatography; type: binding; details: lysates of doxorubicin-treated human fibroblasts
T4 construct: RNA chromatography of PANDA from doxorubicin-treated FL3 cell lysates; endogenous in cells; host or cells: doxorubicin-treated human fetal lung fibroblasts (FL3)
Procedure: as §1, §2

NF-YA [2] = target: T2, NF-YA; experiment: RNA immunoprecipitation of NF-YA; type: binding; details: doxorubicin-treated primary human lung fibroblasts, qRT-PCR
Procedure: Ten million cells were treated with 200 ng/ml doxorubicin for 16 hours, trypsinized and crosslinked with 1% formaldehyde for 10 minutes, followed by the addition of 0.125 M glycine for 5 minutes. After two PBS washes, cells were lysed with 2× volume of Buffer A (10 mM HEPES pH 7.5, 1.5 mM MgCl2, 10 mM KCl, 0.5 mM DTT, 1 mM PMSF) for 15 minutes on ice at 150 r.p.m. NP-40 was added to a final concentration of 0.25% for 5 minutes on ice. Lysates were centrifuged for 3 minutes at 2,000 r.p.m., and the supernatant (cytosol) was collected. Next, an equal volume of Buffer C as that used of Buffer A was added to the pellet for 20 minutes with frequent vortex (20 mM HEPES pH 7.5, 10% glycerol, 0.42 M KCl, 4 mM MgCl2, 0.5 mM DTT, and 1 mM PMSF). Nuclear lysates were dounced for 5 seconds using a motorized pestle and sonicated for 7 minutes using a Diagenode Sonicator (30 seconds on, 30 seconds off, power setting H). Nuclear and cytoplasmic lysates were combined and centrifuged for 15 minutes at 13,000 r.p.m. Supernatants were transferred into micro spin columns (Pierce 89879), and 2 μg of antibody was added and incubated overnight. We washed 10 μl of Protein A/G UltraLink Resin (Pierce 53132) three times with RIP wash buffer (50 mM TrisHcl pH 7.9, 10% glycerol, 100 mM KCl, 5 mM MgCl2, 10 mM B-me and 0.1% NP-40) and added it to the immunoprecipitation reaction for 1 hour at 4° C. […]

[3] = tested on: human fetal lung fibroblasts; experiment: Custom tiling array RNA hybridization (ncRNA expression); type: cell-based; details: doxorubicin-treated human fetal lung fibroblasts; tiling array and qRT-PCR; of 216 ncRNAs
Description: A custom tiling array (Roche NimbleGen) was designed at 5 bp resolution across 25 kb of the 9p21 region (which encompasses CDKN2A, P14ARF and CDKN2B), as well as from 10 kb upstream to 2 kb downstream of each TSS from 53 other cell-cycle genes, including those encoding cyclins, CDKs and CDKIs (Table 1). In addition, the HOXA and HOXD loci were placed on the array as a control. Briefly, RNA was amplified (MessageAmp Kit, Ambion), reverse transcribed (RETROscript Kit, Ambion), labeled and hybridized according to the standard NimbleGen protocol.
Robust multichip average normalized single channel data from each array were subjected to peak calling using the NimbleScan program (Roche NimbleGen) with a window size of 50. Peaks with a peak score greater than ten were considered significant transcriptional units. […]
A peak calling algorithm searched for statistically significant signals above background and detected contiguous regions (peaks) of at least 50 bp. […] Averaging the signal intensity across all probes in a peak produced a quantitative estimate of transcript abundance. Despite possible 3′ bias caused by polyadenylated RNA selection, our procedure detected exon 1 transcription from the majority of cell-cycle coding genes (41 of the 56), showing that this custom tiling array can detect previously reported transcribed regions. […]

[4] = tested on: human fetal lung fibroblasts (FL3); experiment: TUNEL assay; type: cell-based; details: FL3 cells exposed to control siRNA
Procedure: TUNEL assays were performed using the in situ Cell Death Detection Kit, TMR Red (Roche). Human fetal lung fibroblasts were cultured on chamber slides (Lab-Tek), treated with 200 ng/ml doxorubicin (Sigma) for 24 hours, fixed with methanol at −20° C. for 10 minutes and incubated with the TUNEL labeling mixture for 1 hour at 37° C. Slides were then washed with PBS and mounted in Prolong Gold antifade reagent with DAPI (Invitrogen) and imaged at 20× magnification.

[5] = tested on: human fetal lung fibroblasts (FL3); experiment: Quantitative RT-PCR of lncRNA expression, doxorubicin time course; type: cell-based; details: 24 hour time course
Procedure: Total RNA was extracted from cells using the TRIzol reagent (Invitrogen) and the RNeasy Mini Kit (Qiagen), and genomic DNA was eliminated using TURBO DNA-free (Ambion). RT-PCR using 50-250 ng of total RNA was performed using the One-Step RT-PCR Master Mix (Applied Biosystems) using TaqMan Gene Expression Assays and normalized to GAPDH. Strand-specific RT-PCR for PANDA was performed using the One-Step RT-PCR Master Mix SYBR Green (Stratagene)).
A panel of TaqMan custom ncRNA assays was developed targeting 60 of the 219 new transcribed regions using the ‘single-exon’ design mode. The transcript specificity and genome specificity of all TaqMan assays were verified using a position-specific alignment matrix to predict potential cross reactivity between designed assays and genome-wide nontarget transcripts or genomic sequences. […]
Our co-expression maps predicted associations of several lncRNAs with DNA damage response pathways (FIG. 3C and FIG. 11). […] In order to confirm whether these lncRNAs may be responsive to DNA damage, we measured the expression changes of 60 lncRNAs predicted in the DNA damage pathway (as well as upst:CDKN1A:−800) by quantitative RT-PCR in human fetal lung fibroblasts treated with doxorubicin over a 24 hour time course. […]

Row | Molecule | retrieval of EZH2 (EZH2) | retrieval of NF-YA from cellular lysates (NF-YA [1]) | retrieval of p21 (p21) | retrieval of LSD1 (LSD1) | retrieval of endogenous PANDA by immunoprecipitation of NF-YA (NF-YA [2]) | ncRNAs with at least two-fold change [3] | apoptosis as measured by TUNEL [4] | expression of lncRNAs surrounding the CDKN1A TSS [5] | induction of Upst:CDKN1A:−4,845 (PANDA) upon DNA damage [5]
1 | PANDA: P21-Associated NcRNA, DNA damage Activated; 1.5-kb long non-coding RNA | did not retrieve | specifically retrieved | did not retrieve | did not retrieve | specifically retrieved | – | – | – | –
2 | COc1cccc2c1C(=O)c1c(O)c3c(c(O)c1C2=O)C[C@@](O)(C(=O)CO)C[C@@H]3O[C@H]1C[C@H](N)[C@H](O)[C@H](C)O1 [doxorubicin] | – | – | – | – | – | 12 of the 216 | little to no apoptosis | all five of the tested lncRNAs surrounding the CDKN1A TSS were induced | up to 40 fold
